{"source": "patent US12077503B2", "about": "“Substituted cyclic amides and their use as herbicides” (FMC CORPORATION, priority 2015, dated 2024)", "assay_type_in_all_cases": "in vivo", "key": {"Kochia (Kochia scoparia) [1]": {"system": "Kochia (Kochia scoparia)", "assay": "Test A preemergence", "conditions": "Bassia scoparia, pre-emergence, 240 h, 0 to 100 scale where 0 is no effect and 100 is complete control, read-out: Kochia plant response rating", "how_it_was_run": "(§1)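 Treatment is preemergence as a directed soil spray after planting, or postemergence at the one- to two-leaf stage, with test chemical in a non-phytotoxic solvent mixture plus surfactant. Plants stay in the greenhouse about 10 d before visual injury scoring on a 0 to 100 scale versus untreated controls.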"}, "[2]": {"system": "barnyardgrass (Echinochloa crus-galli)", "assay": "Test A preemergence", "conditions": "Echinochloa crus-galli, pre-emergence, 240 h, 0 to 100 scale where 0 is no effect and 100 is complete control, read-out: Barnyardgrass plant response rating", "how_it_was_run": "as §1"}, "[3]": {"system": "giant foxtail (Setaria faberii)", "assay": "Test A preemergence", "conditions": "Setaria faberi, pre-emergence, 240 h, 0 to 100 scale where 0 is no effect and 100 is complete control, read-out: Foxtail, Giant plant response rating", "how_it_was_run": "as §1"}, "[4]": {"system": "pigweed (Amaranthus retroflexus)", "assay": "Test A preemergence", "conditions": "Amaranthus retroflexus, pre-emergence, 240 h, 0 to 100 scale where 0 is no effect and 100 is complete control, read-out: Pigweed plant response rating"}, "[5]": {"system": "ragweed (common ragweed, Ambrosia elatior)", "assay": "Test A preemergence", "conditions": "Ambrosia artemisiifolia, pre-emergence, 240 h, 0 to 100 scale where 0 is no effect and 100 is complete control, read-out: Ragweed plant response rating", "how_it_was_run": "as §1"}, "[6]": {"system": "ryegrass, Italian (Italian ryegrass, Lolium multiflorum)", "assay": "Test A preemergence", "conditions": "Lolium multiflorum, pre-emergence, 240 h, 0 to 100 scale where 0 is no effect and 100 is complete control, read-out: Ryegrass, Italian plant response rating", "how_it_was_run": "as §1"}, "[7]": {"system": "Galium (catchweed bedstraw, Galium aparine)", "assay": "Test A postemergence", "conditions": "Galium, post-emergence, 240 h", "how_it_was_run": "as §1"}, "Kochia (Kochia scoparia) [8]": {"system": "Kochia (Kochia scoparia)", "assay": "Test A postemergence", "conditions": "Bassia scoparia, post-emergence, 240 h", "how_it_was_run": "as §1"}, "[9]": {"system": "barnyardgrass (Echinochloa crus-galli)", "assay": "Test A postemergence", "conditions": "Echinochloa crus-galli, post-emergence, 240 h", "how_it_was_run": "as §1"}, "[10]": {"system": "blackgrass (Alopecurus myosuroides)", "assay": "Test A postemergence", "conditions": "Alopecurus myosuroides, post-emergence, 240 h", "how_it_was_run": "as §1"}, "corn (Zea mays)": {"system": "corn (Zea mays)", "assay": "Test A postemergence", "conditions": "Zea mays, post-emergence, 240 h", "how_it_was_run": "as §1"}, "[11]": {"system": "giant foxtail (Setaria faberii)", "assay": "Test A postemergence", "conditions": "Setaria faberi, post-emergence, 240 h", "how_it_was_run": "as §1"}, "[12]": {"system": "pigweed (Amaranthus retroflexus)", "assay": "Test A postemergence", "conditions": "Amaranthus retroflexus, post-emergence, 240 h, 125 g ai/ha, postemergence, visual injury vs untreated controls after approx. 10 d; 0 = no effect, 100 = complete control; read-out: Pigweed plant response rating (0 to 100 scale)", "how_it_was_run": "as §1"}, "[13]": {"system": "ragweed (common ragweed, Ambrosia elatior)", "assay": "Test A postemergence", "conditions": "Ambrosia artemisiifolia, post-emergence, 240 h, 125 g ai/ha, postemergence, visual injury vs untreated controls after approx. 10 d; 0 = no effect, 100 = complete control; read-out: Ragweed plant response rating (0 to 100 scale)", "how_it_was_run": "as §1"}, "[14]": {"system": "ryegrass, Italian (Italian ryegrass, Lolium multiflorum)", "assay": "Test A postemergence", "conditions": "Lolium multiflorum, post-emergence, 240 h, 125 g ai/ha, postemergence, visual injury vs untreated controls after approx. 10 d; 0 = no effect, 100 = complete control; read-out: Ryegrass, Italian plant response rating (0 to 100 scale)", "how_it_was_run": "as §1"}, "[15]": {"system": "wheat (Triticum aestivum)", "assay": "Test A postemergence", "conditions": "Triticum aestivum, post-emergence, 240 h, 125 g ai/ha, postemergence, visual injury vs untreated controls after approx. 10 d; 0 = no effect, 100 = complete control; read-out: Wheat plant response rating (0 to 100 scale)", "how_it_was_run": "as §1"}, "[16]": {"system": "barnyardgrass (Echinochloa crus-galli)", "assay": "Test B flooded paddy test", "conditions": "Echinochloa crus-galli, 250 g ai/ha, Flood; 0 to 100 scale where 0 is no effect and 100 is complete control; read-out: Barnyardgrass plant response rating", "how_it_was_run": "(§2)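 Response scored visually against untreated controls, 0 = no effect and 100 = complete control, 13–15 d after treatment in the greenhouse. Compounds added to paddy water held 3 cm above soil surface. Treatment given at 2-leaf stage.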"}, "[17]": {"system": "ducksalad (Heteranthera limosa)", "assay": "Test B flooded paddy test", "conditions": "Heteranthera limosa, 250 g ai/ha, Flood; 0 to 100 scale where 0 is no effect and 100 is complete control; read-out: Ducksalad plant response rating", "how_it_was_run": "as §2"}, "rice (Oryra sativa)": {"system": "rice (Oryra sativa)", "assay": "Test B flooded paddy test", "conditions": "Oryza sativa, 250 g ai/ha, Flood; 0 to 100 scale where 0 is no effect and 100 is complete control; read-out: Rice plant response rating", "how_it_was_run": "as §2"}, "[18]": {"system": "sedge, umbrella (small-flower umbrella sedge, Cyperus difformis)", "assay": "Test B flooded paddy test", "conditions": "Cyperus difformis, 250 g ai/ha, Flood; 0 to 100 scale where 0 is no effect and 100 is complete control; read-out: Sedge, Umbrella plant response rating", "how_it_was_run": "as §2"}, "[19]": {"conditions": "125 g ai/ha, preemergence, visual injury rating, approximately 10 d"}}}
{"compound": "Cc1ccc([C@H]2CN(C)C(=O)[C@@H]2C(=O)Nc2cccc(F)c2C)cc1", "note": "[Compound 1186]", "values": [{"measurement": "pest or weed control at 31 g/ha", "setting": "Kochia (Kochia scoparia) [1]; 31 g ai/ha, Preemergence", "result": 70, "unit": "%"}, {"measurement": "pest or weed control at 125 g/ha", "setting": "Kochia (Kochia scoparia) [1]; [19]", "result": 80, "unit": "%"}, {"measurement": "pest or weed control at 31 g/ha", "setting": "[2]; 31 g ai/ha, Preemergence", "result": 90, "unit": "%"}, {"measurement": "pest or weed control at 125 g/ha", "setting": "[2]; [19]", "result": 100, "unit": "%"}, {"measurement": "pest or weed control at 31 g/ha", "setting": "[3]; 31 g ai/ha, Preemergence", "result": 100, "unit": "%"}, {"measurement": "pest or weed control at 125 g/ha", "setting": "[3]; [19]", "result": 100, "unit": "%"}, {"measurement": "pest or weed control at 31 g/ha", "setting": "[4]; 31 g ai/ha, Preemergence", "result": 30, "unit": "%"}, {"measurement": "pest or weed control at 125 g/ha", "setting": "[4]; [19]", "result": 70, "unit": "%"}, {"measurement": "pest or weed control at 31 g/ha", "setting": "[5]; 31 g ai/ha, Preemergence", "result": 0, "unit": "%"}, {"measurement": "pest or weed control at 125 g/ha", "setting": "[5]; [19]", "result": 60, "unit": "%"}, {"measurement": "pest or weed control at 31 g/ha", "setting": "[6]; 31 g ai/ha, Preemergence", "result": 20, "unit": "%"}, {"measurement": "pest or weed control at 125 g/ha", "setting": "[6]; [19]", "result": 70, "unit": "%"}, {"measurement": "pest or weed control at 125 g/ha", "setting": "[7]; 125 g ai/ha, postemergence, visual injury vs untreated controls after approx. 10 d, 0 = no effect, 100 = complete control, read-out: Galium plant response rating (0 to 100 scale)", "result": 60, "unit": "%"}, {"measurement": "pest or weed control at 31 g/ha", "setting": "[7]; Postemergence, 31 g ai/ha, visual injury after approx. 10 d, 0 to 100 scale, 0 no effect, 100 complete control, read-out: Plant response rating, Galium", "result": 50, "unit": "%"}, {"measurement": "pest or weed control at 125 g/ha", "setting": "Kochia (Kochia scoparia) [8]; 125 g ai/ha, postemergence, visual injury vs untreated controls after approx. 10 d, 0 = no effect, 100 = complete control, read-out: Kochia plant response rating (0 to 100 scale)", "result": 60, "unit": "%"}, {"measurement": "pest or weed control at 31 g/ha", "setting": "Kochia (Kochia scoparia) [8]; Postemergence, 31 g ai/ha, visual injury after approx. 10 d, 0 to 100 scale, 0 no effect, 100 complete control, read-out: Plant response rating, Kochia", "result": 20, "unit": "%"}, {"measurement": "pest or weed control at 125 g/ha", "setting": "[9]; 125 g ai/ha, postemergence, visual injury vs untreated controls after approx. 10 d, 0 = no effect, 100 = complete control, read-out: Barnyardgrass plant response rating (0 to 100 scale)", "result": 100, "unit": "%"}, {"measurement": "pest or weed control at 31 g/ha", "setting": "[9]; Postemergence, 31 g ai/ha, visual injury after approx. 10 d, 0 to 100 scale, 0 no effect, 100 complete control, read-out: Plant response rating, Barnyardgrass", "result": 100, "unit": "%"}, {"measurement": "pest or weed control at 125 g/ha", "setting": "[10]; 125 g ai/ha, postemergence, visual injury vs untreated controls after approx. 10 d, 0 = no effect, 100 = complete control, read-out: Blackgrass plant response rating (0 to 100 scale)", "result": 80, "unit": "%"}, {"measurement": "pest or weed control at 31 g/ha", "setting": "[10]; Postemergence, 31 g ai/ha, visual injury after approx. 10 d, 0 to 100 scale, 0 no effect, 100 complete control, read-out: Plant response rating, Blackgrass", "result": 70, "unit": "%"}, {"measurement": "plant injury at 125 g/ha", "setting": "corn (Zea mays); 125 g ai/ha, postemergence, visual injury vs untreated controls after approx. 10 d, 0 = no effect, 100 = complete control, read-out: Corn plant response rating (0 to 100 scale)", "result": 80, "unit": "%"}, {"measurement": "Corn plant response rating (crop injury, 0 = no effect, 100 = complete kill) at 31 g/ha", "setting": "corn (Zea mays); Postemergence, 31 g ai/ha, visual injury after approx. 10 d, 0 to 100 scale, 0 no effect, 100 complete control", "result": 30, "unit": "%"}, {"measurement": "pest or weed control at 125 g/ha", "setting": "[11]; 125 g ai/ha, postemergence, visual injury vs untreated controls after approx. 10 d, 0 = no effect, 100 = complete control, read-out: Foxtail, Giant plant response rating (0 to 100 scale)", "result": 90, "unit": "%"}, {"measurement": "pest or weed control at 31 g/ha", "setting": "[11]; Postemergence, 31 g ai/ha, visual injury after approx. 10 d, 0 to 100 scale, 0 no effect, 100 complete control, read-out: Plant response rating, Foxtail, Giant", "result": 90, "unit": "%"}, {"measurement": "pest or weed control at 125 g/ha", "setting": "[12]", "result": 0, "unit": "%"}, {"measurement": "pest or weed control at 125 g/ha", "setting": "[13]", "result": 70, "unit": "%"}, {"measurement": "pest or weed control at 125 g/ha", "setting": "[14]", "result": 50, "unit": "%"}, {"measurement": "plant injury at 125 g/ha", "setting": "[15]", "result": 60, "unit": "%"}, {"measurement": "pest or weed control at 250 g/ha", "setting": "[16]", "result": 75, "unit": "%"}, {"measurement": "pest or weed control at 250 g/ha", "setting": "[17]", "result": 60, "unit": "%"}, {"measurement": "pest or weed control at 250 g/ha", "setting": "rice (Oryra sativa)", "result": 30, "unit": "%"}, {"measurement": "pest or weed control at 250 g/ha", "setting": "[18]", "result": 0, "unit": "%"}]}
